Source: BindingDB's records for doi:10.1021/jm701164t (Irbm-Mrl, 2008)

Target: Gag-Pol polyprotein (Human immunodeficiency virus type 1 group M subtype B (isolate HXB2), UniProt P04585)
Assay: Microtiter Plate Assay for Strand Transfer
Conditions: pH 7.8; 37 °C
Method: The microtiter plate assay for stand transfer was performed with an immobilized donor substrate and a target substrate biotinylated at the 3-prime end of each DNA strand. Integrase was first assembled with immobilized LTR oligonucleotides for 30 min. Inhibitors were added after assembly and washings. For the strand transfer reaction, it was initiated with the addition of the biotinylated target substrate. Strand transfer reaction mixtures were incubated for additional 30 min, and the strand transfer products were detected by using alkaline phosphatase-conjugated avidin (Boehringer Mannheim, Indianapolis, Ind.).

IC50: 100 nM
SMILES: CC(c1nc(C(=O)NCc2ccc(F)cc2)c(O)c(=O)[nH]1)N(C)C (stereo unspecified) [JMC496646 Compound 11]
